Measurements from patent US9145346B1, “Process for 2,2,4,4-tetramethylcyclobutane-1,3-diol crystallization” (Eastman Chemical Company, priority 2014, dated 2015).

Assay: Solubility (saturated concentration) of cis-TMCD and trans-TMCD in various solvents, by gas chromatography
Assay type: physicochemical
Protocol: All concentrations were measured by gas chromatography. Water concentration was measured by Karl Fischer titrations.
The solubility of cis-TMCD and trans-TMCD in various solvents was determined by charging cis-TMCD, trans-TMCD, and the solvent or solvents of interest into a 120 ml jacketed glass vessel. The vessel was equipped with a stir bar in order to provide mixing and the jacket was used to control the temperature of the vessel contents. The vessel was equipped with charging and sampling ports on top of the vessel.
The slurry was allowed to stand for a time sufficient for the solids to saturate the solvent at the desired temperature. At that time, a sample of the solution was withdrawn from the cell using a fritted pipette so as to remove only the liquid phase. The sample was analyzed for cis-TMCD and trans-TMCD isomer content. These values represent the saturated concentration of each isomer at the sampling temperature.
After this, the cell contents were heated to the next desired temperature and the contents were held for another time interval sufficient to allow the slurry to equilibrate. A sample was then taken of the solution and analyzed. Following this procedure, solubility data was collected up to the final desired temperature.
The reported solubility of each isomer at a given temperature for a given solvent is expressed as a weight % relative to the saturated concentration of the isomer at the highest temperature reported for a given solvent.

Work on `CC1(C)[C@H](O)C(C)(C)[C@@H]1O` [cis-TMCD, cis-2,2,4,4-tetramethylcyclobutane-1,3-diol] yielded a Relative solubility (2-Ethylhexanol, 0.7° C., relative to 89.8° C.) of 10% relative wt %, a Relative solubility (2-Ethylhexanol, 12.5° C., relative to 89.8° C.) of 16% relative wt % and a Relative solubility (2-Ethylhexanol, 24.7° C., relative to 89.8° C.) of 21% relative wt %. It also gave a Relative solubility (2-Ethylhexanol, 40.0° C., relative to 89.8° C.) of 29% relative wt %, a Relative solubility (2-Ethylhexanol, 49.9° C., relative to 89.8° C.) of 37% relative wt % and a Relative solubility (2-Ethylhexanol, 60.2° C., relative to 89.8° C.) of 46% relative wt %. For the same compound, the Relative solubility (2-Ethylhexanol, 69.3° C., relative to 89.8° C.) was 58% relative wt %, the Relative solubility (2-Ethylhexanol, 79.3° C., relative to 89.8° C.) was 76% relative wt % and the Relative solubility (2-Ethylhexanol, 89.8° C., relative to 89.8° C.) was 100% relative wt %. For the same compound, the Relative solubility (2-Ethylhexyl Acetate, 5.9° C., relative to 79.4° C.) was 5% relative wt %, the Relative solubility (2-Ethylhexyl Acetate, 15.5° C., relative to 79.4° C.) was 8% relative wt % and the Relative solubility (2-Ethylhexyl Acetate, 25.1° C., relative to 79.4° C.) was 12% relative wt %. It also gave a Relative solubility (2-Ethylhexyl Acetate, 40.5° C., relative to 79.4° C.) of 22% relative wt %, a Relative solubility (2-Ethylhexyl Acetate, 49.8° C., relative to 79.4° C.) of 31% relative wt % and a Relative solubility (2-Ethylhexyl Acetate, 49.9° C., relative to 79.4° C.) of 32% relative wt %. For the same compound, the Relative solubility (2-Ethylhexyl Acetate, 60.5° C., relative to 79.4° C.) was 47% relative wt %, the Relative solubility (2-Ethylhexyl Acetate, 70.3° C., relative to 79.4° C.) was 74% relative wt % and the Relative solubility (2-Ethylhexyl Acetate, 79.4° C., relative to 79.4° C.) was 100% relative wt %. The Relative solubility (2-Ethylhexyl Acetate, −5.0° C., relative to 79.4° C.) was 4% relative wt %, the Relative solubility (CHDM, 69.0° C., relative to 106.9° C.) was 27% relative wt % and the Relative solubility (CHDM, 79.2° C., relative to 106.9° C.) was 58% relative wt %. It also gave a Relative solubility (CHDM, 88.9° C., relative to 106.9° C.) of 69% relative wt %, a Relative solubility (CHDM, 95.6° C., relative to 106.9° C.) of 85% relative wt % and a Relative solubility (CHDM, 106.9° C., relative to 106.9° C.) of 100% relative wt %. For the same compound, the Relative solubility (Dimethyl Carbonate, 6.2° C., relative to 70.1° C.) was 7% relative wt %, the Relative solubility (Dimethyl Carbonate, 16.3° C., relative to 70.1° C.) was 9% relative wt % and the Relative solubility (Dimethyl Carbonate, 25.7° C., relative to 70.1° C.) was 14% relative wt %. It also gave a Relative solubility (Dimethyl Carbonate, 40.5° C., relative to 70.1° C.) of 28% relative wt %, a Relative solubility (Dimethyl Carbonate, 54.7° C., relative to 70.1° C.) of 55% relative wt % and a Relative solubility (Dimethyl Carbonate, 70.1° C., relative to 70.1° C.) of 100% relative wt %. For the same compound, the Relative solubility (Ethanol, 5.3° C., relative to 60.3° C.) was 47% relative wt %, the Relative solubility (Ethanol, 14.3° C., relative to 60.3° C.) was 52% relative wt % and the Relative solubility (Ethanol, 25.5° C., relative to 60.3° C.) was 68% relative wt %. The Relative solubility (Ethanol, 39.9° C., relative to 60.3° C.) was 81% relative wt %, the Relative solubility (Ethanol, 50.1° C., relative to 60.3° C.) was 88% relative wt % and the Relative solubility (Ethanol, 60.3° C., relative to 60.3° C.) was 100% relative wt %. The Relative solubility (Ethyl Acetate, 4.2° C., relative to 54.9° C.) was 15% relative wt %, the Relative solubility (Ethyl Acetate, 15.0° C., relative to 54.9° C.) was 24% relative wt % and the Relative solubility (Ethyl Acetate, 26.2° C., relative to 54.9° C.) was 37% relative wt %. For the same compound, the Relative solubility (Ethyl Acetate, 40.5° C., relative to 54.9° C.) was 62% relative wt %, the Relative solubility (Ethyl Acetate, 54.9° C., relative to 54.9° C.) was 100% relative wt % and the Relative solubility (Ethyl Acetate, −5.1° C., relative to 54.9° C.) was 12% relative wt %. For the same compound, the Relative solubility (Ethylene Glycol, 26.5° C., relative to 91.4° C.) was 25% relative wt %, the Relative solubility (Ethylene Glycol, 36.2° C., relative to 91.4° C.) was 32% relative wt % and the Relative solubility (Ethylene Glycol, 48.5° C., relative to 91.4° C.) was 42% relative wt %. It also gave a Relative solubility (Ethylene Glycol, 61.5° C., relative to 91.4° C.) of 57% relative wt %, a Relative solubility (Ethylene Glycol, 72.1° C., relative to 91.4° C.) of 68% relative wt % and a Relative solubility (Ethylene Glycol, 82.2° C., relative to 91.4° C.) of 87% relative wt %. For the same compound, the Relative solubility (Methanol, 16.9° C., relative to 41.3° C.) was 86% relative wt %, the Relative solubility (Methanol, 25.6° C., relative to 41.3° C.) was 91% relative wt % and the Relative solubility (Methanol, 41.3° C., relative to 41.3° C.) was 100% relative wt %. For the same compound, the Relative solubility (Methanol, −2.5° C., relative to 41.3° C.) was 77% relative wt %, the Relative solubility (Methyl Acetate, 5.9° C., relative to 49.8° C.) was 15% relative wt % and the Relative solubility (Methyl Acetate, 15.5° C., relative to 49.8° C.) was 22% relative wt %. It also gave a Relative solubility (Methyl Acetate, 25.1° C., relative to 49.8° C.) of 33% relative wt %, a Relative solubility (Methyl Acetate, 40.5° C., relative to 49.8° C.) of 59% relative wt % and a Relative solubility (Methyl Acetate, 49.8° C., relative to 49.8° C.) of 100% relative wt %. It also gave a Relative solubility (Methyl Acetate, −5.0° C., relative to 49.8° C.) of 9% relative wt %, a Relative solubility (Methyl i-Butyl Carbinol, 9.4° C., relative to 81.9° C.) of 20% relative wt % and a Relative solubility (Methyl i-Butyl Carbinol, 20.4° C., relative to 81.9° C.) of 25% relative wt %. For the same compound, the Relative solubility (Methyl i-Butyl Carbinol, 31.1° C., relative to 81.9° C.) was 31% relative wt %, the Relative solubility (Methyl i-Butyl Carbinol, 40.0° C., relative to 81.9° C.) was 40% relative wt % and the Relative solubility (Methyl i-Butyl Carbinol, 49.5° C., relative to 81.9° C.) was 49% relative wt %. It also gave a Relative solubility (Methyl i-Butyl Carbinol, 60.0° C., relative to 81.9° C.) of 62% relative wt %, a Relative solubility (Methyl i-Butyl Carbinol, 69.5° C., relative to 81.9° C.) of 78% relative wt % and a Relative solubility (Methyl i-Butyl Carbinol, 81.9° C., relative to 81.9° C.) of 100% relative wt %. For the same compound, the Relative solubility (i-Butyl Acetate, 4.8° C., relative to 90.1° C.) was 5% relative wt %, the Relative solubility (i-Butyl Acetate, 16.9° C., relative to 90.1° C.) was 8% relative wt % and the Relative solubility (i-Butyl Acetate, 25.6° C., relative to 90.1° C.) was 11% relative wt %. The Relative solubility (i-Butyl Acetate, 41.3° C., relative to 90.1° C.) was 19% relative wt %, the Relative solubility (i-Butyl Acetate, 56.2° C., relative to 90.1° C.) was 32% relative wt % and the Relative solubility (i-Butyl Acetate, 70.2° C., relative to 90.1° C.) was 52% relative wt %. It also gave a Relative solubility (i-Butyl Acetate, 90.1° C., relative to 90.1° C.) of 100% relative wt %, a Relative solubility (i-Butyl Acetate, −2.5° C., relative to 90.1° C.) of 5% relative wt % and a Relative solubility (n-Butanol, 5.9° C., relative to 60.5° C.) of 46% relative wt %. The Relative solubility (n-Butanol, 15.5° C., relative to 60.5° C.) was 51% relative wt %, the Relative solubility (n-Butanol, 25.1° C., relative to 60.5° C.) was 59% relative wt % and the Relative solubility (n-Butanol, 40.5° C., relative to 60.5° C.) was 73% relative wt %. The Relative solubility (n-Butanol, 49.8° C., relative to 60.5° C.) was 86% relative wt %, the Relative solubility (n-Butanol, 49.9° C., relative to 60.5° C.) was 86% relative wt % and the Relative solubility (n-Butanol, 60.5° C., relative to 60.5° C.) was 100% relative wt %. It also gave a Relative solubility (n-Butanol, −5.0° C., relative to 60.5° C.) of 41% relative wt %, a Relative solubility (n-Butyl Propionate, 6.5° C., relative to 91.9° C.) of 4% relative wt % and a Relative solubility (n-Butyl Propionate, 16.8° C., relative to 91.9° C.) of 7% relative wt %. For the same compound, the Relative solubility (n-Butyl Propionate, 27.7° C., relative to 91.9° C.) was 10% relative wt %, the Relative solubility (n-Butyl Propionate, 41.7° C. (sample 4), relative to 91.9° C.) was 17% relative wt % and the Relative solubility (n-Butyl Propionate, 41.7° C. (sample 5), relative to 91.9° C.) was 18% relative wt %. For the same compound, the Relative solubility (n-Butyl Propionate, 52.0° C., relative to 91.9° C.) was 27% relative wt %, the Relative solubility (n-Butyl Propionate, 61.5° C., relative to 91.9° C.) was 37% relative wt % and the Relative solubility (n-Butyl Propionate, 69.1° C., relative to 91.9° C.) was 50% relative wt %. It also gave a Relative solubility (n-Butyl Propionate, 80.7° C., relative to 91.9° C.) of 74% relative wt %, a Relative solubility (n-Butyl Propionate, 91.9° C., relative to 91.9° C.) of 100% relative wt % and a Relative solubility (n-Propyl Propionate, 7.0° C., relative to 72.2° C.) of 10% relative wt %. The Relative solubility (n-Propyl Propionate, 17.1° C., relative to 72.2° C.) was 14% relative wt %, the Relative solubility (n-Propyl Propionate, 26.7° C., relative to 72.2° C.) was 21% relative wt % and the Relative solubility (n-Propyl Propionate, 37.4° C., relative to 72.2° C.) was 30% relative wt %. The Relative solubility (n-Propyl Propionate, 42.4° C., relative to 72.2° C.) was 34% relative wt %, the Relative solubility (n-Propyl Propionate, 52.2° C., relative to 72.2° C.) was 50% relative wt % and the Relative solubility (n-Propyl Propionate, 62.9° C., relative to 72.2° C.) was 72% relative wt %. For the same compound, the Relative solubility (n-Propyl Propionate, 72.2° C., relative to 72.2° C.) was 100% relative wt %.
